Assay results published in patent EP1891948A1, “Treatment of neurological and neuropsychological disorders” (Probiodrug AG, priority 2000, dated 2002).

Tested on: WistarF/Han (WF) rats
Experiment: 1h food intake with Y1R antagonist pre-treatment (Example 4)
Type: in vivo
Conditions: i.c.v., isoleucyl thiazolidine 50nmol, Fig. 11
Description: Animals. Male WistarF/Han (WF) rats (Central Animal Laboratory, Hannover Medical School, Hannover, Germany, see http://www.mh-hannover.de/institut/tierlabor/wf.htm for details), weighing 330±31 g±SD, were housed in a sound-proof, temperature controlled (24.0±0.5°C) room under specific pathogen free conditions with a 12/12h dark/light cycle (lights on at 07.00 with illumination level of 80 Lux). Food (Altromin lab chow pellets) and tap water were available ad libitum. Under ketamine/xylasine (100/5 mg/kg, i.p.) anesthesia, the rats were fixed in a Kopf stereotaxic frame and implanted with cannulae (Plastic One, Inc., Roanoke, VA, USA) above the lateral ventricle. All research and animal care procedures were approved by the Lower Saxony district government (Hannover, Germany) and followed principles described in the European Community's Council Directive of 24 November 1986 (86/609/EEC).
Surgery and i.c.v. application. For surgery, rats were anesthetized and prepared with i.c.v. cannulae (coordinates: A:-0.7mm caudal, L:1.4mm lateral to bregma; and V3.2mm ventral to the skull surface; tooth bar +3.0 above ear bars) using standard stereotaxic procedures as described in detail elsewhere (von Hörsten et al., 1998a,b,c). After a 7-day recovery period, successful ventricle cannulation was confirmed by an angiotensin drinking response (von Hörsten et al., 1998a). Rats showing a positive drinking response (n=56) were then habituated to experimental handling by daily sham injections for seven days.
Animals were randomly divided into eight experimental groups (n=6-8/group), which completed one SI test of anxiety: (1) aCSF+aCSF+aCSF; (2) BIBP+aCSF+aCSF; (3) aCSF+isoleucyl thiazolidine+aCSF; (4) BIBP+isoleucyl thiazolidine+aCSF; (5) aCSF+aCSF+NPY; (6) BIBP+aCSF+NPY; (7) aCSF+P32/89+NPY; (8) BIBP+isoleucyl thiazolidine+NPY. Animals in each group were treated in an identical way in each phase, receiving i.c.v. injections -60mins and -55min before behavioral testing. Experiments spanned two nights with groups counterbalances on both dark cycles. The injection cannula was attached to a Hamilton microsyringe with approximately 30cm of polyethylene tubing and all compounds were infused in a total volume of 5.0µl at a rate of 5.0 µl/min using a TSE multichannel infusion pump (Bad Homburg, Germany). The time spent in active social interaction (SI-time), 1h, and 12h food-intake were measured.
Peptides and Antagonist. Rat neuropeptide Y1-36 was obtained from Polypeptide Laboratories (Wolfenbüttel, Germany). The NPY Y1 receptor antagonist BIBP3226 was purchased from American Peptide Company, Sunnyvale, CA, USA (Cat#:60-1-22B). […]
Statistical analysis. Data obtained from the measures SI time and 1h food intake were analyzed by one-way (factor: "treatment") ANOVA. […]

Compound: CCC(C)C(N)C(=O)N1CCSC1 (centres unmarked) [isoleucyl thiazolidine]
- 1h feeding under Y1R blockade (BIBP3226 100nmol pre-treatment, NPY 0.8nmol): blocked
- 1h food-intake (without antagonist): non-significant slight increase
